Assay results published in patent US5804590A, “Treatment and prophylaxis of osteoporosis” (Sankyo Company, Limited, priority 1995, dated 1998).
“Also recorded” adds a separate entry of the source.

Experiments:
[1] = system: Zucker Diabetic Fatty rats; assay: Measurement of bone mineral density (femoral bones, ZDF rats); type: in vivo; details: for Bone mineral density (BMD): mean ± standard error
Description: Osteoporosis may be assessed by a measurement of bone mineral density. Bone mineral density can be measured according to the method reported, for example, in Radioisotope, 37, (9), 521-524 (1988) or in Rinsho-Hoshasen, 35, (1), 41-48 (1990).
Three groups of animals were tested:
(§1) 1. Zucker Diabetic Fatty rats ("ZDF rats"): these are experimental animals with spontaneous diabetes mellitus. A test drug was administered to these animals in a conventional F2 powdery feed. This group is referred to as the "test ZDF group".
2. ZDF rats to which the F2 powdery feed is administered without the drug. This group is referred to as the "control ZDF group".
3. Normal experimental rats (i.e. not ZDF rats) to which the F2 powdery feed is administered without the drug. This group is referred to as the "normal group".
(§2) Compound No. 1, or 5-[4-(6-hydroxy-2,5,7,8-tetramethylchroman-2-ylmethoxy)benzyl]thiazolidin- 2,4-dione, also known as "troglitazone", was administered to 6 week old ZDF rats, by mixing it into F2 powdery feed in an amount of 0.2% w/w for a period of 13 weeks. The mean dosage was 165 mg/kg/day. […] At 19 weeks of age, the rats were sacrificed by ether anesthesia followed by blood-letting from the abdominal aorta. The femoral bones were excised to measure their bone mineral density. For the measurement by X ray, Bone Mineral Density Measuring Apparatus (DCS-600R, Aloka, Japan) was employed.
The experiment reported in Example 1 was repeated, using 4 groups of rats:
1. A normal group (as in Example 1).
2. A control ZDF group (as in Example 1).
(§3) 3. A test ZDF group in which troglitazone was present in the feed in an amount of 0.2%, resulting in an average uptake of 132 mg/kg/day (hereinafter the "troglitazone ZDF group").
(§4) 4. A test ZDF group in which pioglitazone was present in the feed in an amount of 0.067%, resulting in an average uptake of 52.6 mg/kg/day (hereinafter the "pioglitazone ZDF group").
The experiment reported in Example 1 was repeated, but only for 4 weeks, using 6 groups of rats:
(§5) 3. A test ZDF group in which troglitazone was present in the feed in an amount of 0.05%, resulting in an average uptake of 43.5 mg/kg/day (hereinafter the "low troglitazone ZDF group").
(§6) 4. A test ZDF group in which troglitazone was present in the feed in an amount of 0.1%, resulting in an average uptake of 89.8 mg/kg/day (hereinafter the "high troglitazone ZDF group").
(§7) 5. A test ZDF group in which pioglitazone was present in the feed in an amount of 0.0125%, resulting in an average uptake of 12.4 mg/kg/day (hereinafter the "low pioglitazone ZDF group").
(§8) 6. A test ZDF group in which pioglitazone was present in the feed in an amount of 0.025%, resulting in an average uptake of 23.1 mg/kg/day (hereinafter the "high pioglitazone ZDF group").

[2] = system: Zucker Diabetic Fatty rats; assay: Control of diabetes in ZDF rats; type: in vivo
Description: as §1, §2, §3, §4, §5, §6, §7, §8

ddy-mice = assay: Acute toxicity, oral administration; details: in vivo, po, 300 mg/kg
Description: (§9) The acute toxicity of troglitazone was examined by a conventional procedure.
(§10) To 3 ddy-mice, a dose of 300 mg/kg of troglitazone was administered orally.
(§11) The acute toxicities of Compounds Nos. 2, 3, 4 and 10 were examined in a similar way by oral administration. The acute toxicity values were all found to be more than 300 mg/kg.

[3] = Acute toxicity, oral administration; details: mouse, in vivo; oral administration
Description: as §9, §10, §11

rat = details: J. Bone & Mineral Research, 10(1), S361 (1995); cited from earlier work
[4] = Example 2, at doses that fully control diabetes, compared with control ZDF rats
[5] = Example 3, low and high doses, 4 weeks, as compared with control ZDF group
[6] = Example 2, troglitazone 132 mg/kg/day, pioglitazone 52.6 mg/kg/day
[7] = Example 3, troglitazone 43.5 and 89.8 mg/kg/day, pioglitazone 12.4 and 23.1 mg/kg/day

| Compound | effect on bone mineral density (in words) [1, 4] | effect on bone mineral density (in words) [1, 5] | control of diabetes [2, 6] | control of diabetes [2, 7] | LD50 at 120 h [3] [mg/kg] | further results |
| --- | --- | --- | --- | --- | --- | --- |
| Cc1c(C)c2c(c(C)c1O)CCC(C)(COc1ccc(CC3SC(=O)NC3=O)cc1)O2 (centres unmarked) [Compound No. 1, 5-[4-(6-Hydroxy-2,5,7,8-tetramethylchroman-2-ylmethoxy)benzyl]thiazolidin-2,4-dione] | increased BMD from the depressed level in the control ZDF rats almost to the level found in normal rats | improves BMD as compared with the control ZDF group | fully controlled diabetes | do not control diabetes or control it only partially; also recorded: incompletely effective against diabetes | – | Bone mineral density (BMD) ([1]; Example 1, test ZDF group, 0.2% w/w in feed, mean 165 mg/kg/day, 13 weeks, n=7, * p < 0.05 vs control ZDF (164.6 ± 3.9), normal 187.3 ± 2.3): 172.8 ± 7.2 mg/cm^2; Bone mineral density (BMD) ([1]; Example 2, troglitazone ZDF group, 0.2% in feed, 132 mg/kg/day, n=6, *** p < 0.001 vs control ZDF (157.0 ± 2.2), normal 187.4 ± 1.5): 169.4 ± 1.1 mg/cm^2; Bone mineral density (BMD) ([1]; Example 3, 4 weeks, high troglitazone ZDF group, 0.1% in feed, 89.8 mg/kg/day, n=5, *** p < 0.001 vs control ZDF (149.8 ± 1.0)): 159.8 ± 1.2 mg/cm^2; Bone mineral density (BMD) ([1]; Example 3, 4 weeks, low troglitazone ZDF group, 0.05% in feed, 43.5 mg/kg/day, n=5, *** p < 0.001 vs control ZDF (149.8 ± 1.0), normal 153.4 ± 0.9): 156.6 ± 1.5 mg/cm^2; control of diabetes ([2]; Example 1, mean dosage 165 mg/kg/day in feed): diabetes is fully controlled; survival after 5 days (ddy-mice): all mice were alive |
| Cc1c(C)c2c(c(C)c1O)CCC(COc1ccc(CC3SC(=O)NC3=O)cc1)O2 (centres unmarked) [compound 2] | – | – | – | – | > 300 | – |
| CC1(COc2ccc(CC3SC(=O)NC3=O)cc2)CCc2cc(O)ccc2O1 (centres unmarked) [compound 3] | – | – | – | – | > 300 | – |
| CC1(COc2ccc(CC3SC(=O)NC3=O)cc2)CCc2cc(O)c(C(C)(C)C)cc2O1 (centres unmarked) [compound 4, 5-[4-(6-Hydroxy-2-methyl-7-t-butylchroman-2-ylmethoxy)benzyl]thiazolidin-2,4-dione] | – | – | – | – | > 300 | – |
| CCOC(=O)Oc1c(C)c(C)c2c(c1C)CCC(C)(COc1ccc(CC3SC(=O)NC3=O)cc1)O2 (centres unmarked) [compound 10] | – | – | – | – | > 300 | – |
| CCc1ccc(CCOc2ccc(CC3SC(=O)NC3=O)cc2)nc1 (centres unmarked) [pioglitazone, reference compound] | reduced BMD to below the level found in untreated ZDF rats | not effective | fully controlled diabetes | do not control diabetes or control it only partially; also recorded: incompletely effective against diabetes | – | Bone mineral density (BMD) ([1]; Example 2, pioglitazone ZDF group, 0.067% in feed, 52.6 mg/kg/day, n=6, * p < 0.05 vs control ZDF (157.0 ± 2.2)): 149.3 ± 1.8 mg/cm^2; Bone mineral density (BMD) ([1]; Example 3, 4 weeks, high pioglitazone ZDF group, 0.025% in feed, 23.1 mg/kg/day, n=5, control ZDF 149.8 ± 1.0): 151.2 ± 0.7 mg/cm^2; Bone mineral density (BMD) ([1]; Example 3, 4 weeks, low pioglitazone ZDF group, 0.0125% in feed, 12.4 mg/kg/day, n=5, control ZDF 149.8 ± 1.0): 151.2 ± 0.9 mg/cm^2; anti-diabetic activity relative to troglitazone ([2]; statement in Example 2): more active than troglitazone; bone loss as assessed by bone mineral density (rat): lead to bone loss, as assessed by a decrease in bone mineral density |
